Data: US8329717B2, “Pyrimidine derivatives and their use for controlling undesired plant growth” (Bayer Cropscience AG, priority 2008, dated 2012)

Assays:
[1] = tested on: Alopecurus myosuroides; test: Pre-emergence herbicidal effect; assay type: in vivo; conditions: Dosage 320 g/ha, visual scoring after 3 weeks vs untreated controls, 100% = plants have died
Source text: (§1) 1. Pre-Emergence Herbicidal Effect and Crop Plant Compatibility Seeds of monocotyledonous or dicotyledonous weed plants or crop plants are planted in wood-fiber pots in sandy loam and covered with earth. The compounds according to the invention, formulated in the form of wettable powders (WP) or as emulsion concentrates (EC), are then applied as aqueous suspension or emulsion at a water application rate of 600 to 800 l/ha (converted) with the addition of 0.2% of wetting agent to the surface of the covering earth. The dosage of the compounds according to the invention is given in grams per hectare. Following the treatment, the pots are placed in a greenhouse and kept under good growth conditions for the test plants. The visual scoring of the damage on the test plants is carried out after an experiment time of 3 weeks in comparison with untreated controls (herbicidal effect in percent (%): 100% effect=plants have died, 0% effect=as control plants). The following abbreviations are used in the tables below: [table]

[2] = tested on: Amaranthus retroflexus; test: Pre-emergence herbicidal effect; assay type: in vivo; conditions: Dosage 320 g/ha, visual scoring after 3 weeks vs untreated controls, 100% = plants have died
Source text: as §1

[3] = tested on: Avena fatua; test: Pre-emergence herbicidal effect; assay type: in vivo; conditions: Dosage 320 g/ha, visual scoring after 3 weeks vs untreated controls, 100% = plants have died
Source text: as §1

[4] = tested on: Echinochloa crus-galli; test: Pre-emergence herbicidal effect; assay type: in vivo; conditions: Dosage 320 g/ha, visual scoring after 3 weeks vs untreated controls, 100% = plants have died
Source text: as §1

[5] = tested on: Matricaria inodora; test: Pre-emergence herbicidal effect; assay type: in vivo; conditions: Dosage 320 g/ha, visual scoring after 3 weeks vs untreated controls, 100% = plants have died
Source text: as §1

[6] = tested on: Polygonum convolvulus; test: Pre-emergence herbicidal effect; assay type: in vivo; conditions: Dosage 320 g/ha, visual scoring after 3 weeks vs untreated controls, 100% = plants have died
Source text: as §1

[7] = tested on: Setaria viridis; test: Pre-emergence herbicidal effect; assay type: in vivo; conditions: Dosage 320 g/ha, visual scoring after 3 weeks vs untreated controls, 100% = plants have died
Source text: as §1

[8] = tested on: Stellaria media; test: Pre-emergence herbicidal effect; assay type: in vivo; conditions: Dosage 320 g/ha, visual scoring after 3 weeks vs untreated controls, 100% = plants have died
Source text: as §1

[9] = tested on: Veronica persica; test: Pre-emergence herbicidal effect; assay type: in vivo; conditions: Dosage 320 g/ha, visual scoring after 3 weeks vs untreated controls, 100% = plants have died
Source text: as §1

[10] = tested on: Viola tricolor; test: Pre-emergence herbicidal effect; assay type: in vivo; conditions: Dosage 320 g/ha, visual scoring after 3 weeks vs untreated controls, 100% = plants have died
Source text: as §1

[11] = tested on: Echinochloa crus-galli; test: Post-emergence herbicidal effect; assay type: in vivo; conditions: Dosage 320 g/ha, one-leaf stage, visual scoring after ca. 3 weeks vs untreated controls, 100% = plants have died
Procedure: (§2) The following abbreviations are used in the tables below: [table] 2. Post-Emergence Herbicidal Effect and Crop Plant Compatibility Seeds of monocotyledonous or dicotyledonous weed plants or crop plants are planted in wood-fiber pots in sandy loam, covered with earth and grown in a greenhouse under good growth conditions. 2 to 3 weeks after sowing, the test plants are treated in the one-leaf stage. The compounds according to the invention, formulated in the form of wettable powders (WP) or as emulsion concentrates (EC), are then sprayed onto the green plant parts as aqueous suspension or emulsion at a water application rate of 600 to 800 l/ha (converted) with the addition of 0.2% of wetting agent. The dosage of the compounds according to the invention is given in grams per hectare. After ca. 3 weeks' standing time of the test plants in the greenhouse under optimum growth conditions, the effect of the preparations is scored visually in comparison with untreated controls (herbicidal effect in percent (%): 100% effect=plants have died, 0% effect=as control plants).

[12] = tested on: Setaria viridis; test: Post-emergence herbicidal effect; assay type: in vivo; conditions: Dosage 320 g/ha, one-leaf stage, visual scoring after ca. 3 weeks vs untreated controls, 100% = plants have died
Procedure: as §2

[13] = tested on: Stellaria media; test: Post-emergence herbicidal effect; assay type: in vivo; conditions: Dosage 320 g/ha, one-leaf stage, visual scoring after ca. 3 weeks vs untreated controls, 100% = plants have died
Procedure: as §2

[14] = tested on: Veronica persica; test: Post-emergence herbicidal effect; assay type: in vivo; conditions: Dosage 320 g/ha, one-leaf stage, visual scoring after ca. 3 weeks vs untreated controls, 100% = plants have died
Procedure: as §2

[15] = logp (HCOOH), chemicophysical data; conditions: HCOOH
[16] = tested on: Lolium multiflorum; test: Pre-emergence herbicidal effect; assay type: in vivo; conditions: Dosage 320 g/ha, visual scoring after 3 weeks vs untreated controls, 100% = plants have died
Source text: as §1

[17] = tested on: Alopecurus myosuroides; test: Post-emergence herbicidal effect; assay type: in vivo; conditions: Dosage 320 g/ha, one-leaf stage, visual scoring after ca. 3 weeks vs untreated controls, 100% = plants have died
Procedure: as §2

[18] = tested on: Amaranthus retroflexus; test: Post-emergence herbicidal effect; assay type: in vivo; conditions: Dosage 320 g/ha, one-leaf stage, visual scoring after ca. 3 weeks vs untreated controls, 100% = plants have died
Procedure: as §2

[19] = tested on: Lolium multiflorum; test: Post-emergence herbicidal effect; assay type: in vivo; conditions: Dosage 320 g/ha, one-leaf stage, visual scoring after ca. 3 weeks vs untreated controls, 100% = plants have died
Procedure: as §2

[20] = tested on: Abutilon theophrasti; test: Post-emergence herbicidal effect; assay type: in vivo; conditions: Dosage 320 g/ha, one-leaf stage, visual scoring after ca. 3 weeks vs untreated controls, 100% = plants have died
Procedure: as §2

[21] = tested on: Viola tricolor; test: Post-emergence herbicidal effect; assay type: in vivo; conditions: Dosage 320 g/ha, one-leaf stage, visual scoring after ca. 3 weeks vs untreated controls, 100% = plants have died
Procedure: as §2

[22] = tested on: PHBPU; test: Post-emergence herbicidal effect; assay type: in vivo; conditions: Dosage 320 g/ha, one-leaf stage, visual scoring after ca. 3 weeks vs untreated controls, 100% = plants have died
Procedure: as §2, with “2.” for “The following abbreviations are used in the tables below: [table] 2.”

| Structure (SMILES) | Pre-emergence herbicidal effect ALOMY [1] [%] | Pre-emergence herbicidal effect AMARE [2] [%] | Pre-emergence herbicidal effect AVEFA [3] [%] | Pre-emergence herbicidal effect ECHCG [4] [%] | Pre-emergence herbicidal effect MATIN [5] [%] | Pre-emergence herbicidal effect POLCO [6] [%] | Pre-emergence herbicidal effect SETVI [7] [%] | Pre-emergence herbicidal effect STEME [8] [%] | Pre-emergence herbicidal effect VERPE [9] [%] | Pre-emergence herbicidal effect VIOTR [10] [%] | Post-emergence herbicidal effect ECHCG [11] [%] | Post-emergence herbicidal effect SETVI [12] [%] | Post-emergence herbicidal effect STEME [13] [%] | Post-emergence herbicidal effect VERPE [14] [%] | logp (HCOOH) [15] | Pre-emergence herbicidal effect LOLMU [16] [%] | Post-emergence herbicidal effect AMARE [18] [%] | Post-emergence herbicidal effect ABUTH [20] [%] | Post-emergence herbicidal effect VIOTR [21] [%] | further results |
| --- | --- | --- | --- | --- | --- | --- | --- | --- | --- | --- | --- | --- | --- | --- | --- | --- | --- | --- | --- | --- |
| CCc1nc(N[C@@H]2CCCc3ccccc32)nc(N)c1C#N [Example 1.63] | 100 | 90 | 80 | 100 | 100 | 100 | 100 | 100 | 100 | 100 | 80 | 80 | 80 | 80 | wax-like; logp (HCOOH): 2.49; 1H-NMR (CDCl3, 400 MHZ, δ in ppm): 1.25 (t, 3H, CH3); |  |  |  |  |  |
| Nc1nc(N[C@@H]2CCCc3ccccc32)ncc1Cl [Example 1.106] | 100 | 100 |  | 90 | 90 |  | 100 | 100 | 100 |  | 90 | 80 | 80 | 80 |  | 100 | 80 |  |  | Post-emergence herbicidal effect ALOMY [17]: 80%; Post-emergence herbicidal effect LOLMU [19]: 90% |
| CCc1nc(N[C@H]2c3cc(C)ccc3C[C@@H]2C)nc(N)c1C#N [Example 1.61] | 100 | 100 | 90 | 100 | 90 | 100 | 90 | 100 | 100 | 100 | 90 |  | 90 | 90 | solid, m.p.: 126.9° C.; logp (HCOOH): 3.07; 1H-NMR (CDCl3, 400 MHZ, δ in ppm): 1.25 |  |  | 80 | 80 |  |
| Nc1nc(N[C@@H]2CCCc3ccccc32)ncc1Br [Example 1.97] | 80 | 100 |  | 100 | 100 |  | 100 | 100 | 100 | 100 | 80 | 80 | 80 | 80 |  | 100 | 80 |  |  | Post-emergence herbicidal effect LOLMU [19]: 80% |
| Cc1ccc2c(c1)[C@H](Nc1nc(C)c(I)c(N)n1)[C@@H](C)C2 [Example 1.46] | 80 | 100 | 80 |  | 100 | 100 | 100 | 100 | 100 | 100 |  | 90 | 90 | 90 | wax-like; logp (HCOOH): 1.39; 1H-NMR (CDCl3, 400 MHZ, δ in ppm): 1.25 (d, 3H, CH3); | 100 | 100 | 100 | 90 |  |
| Cc1nc(NC2CCOc3ccccc32)nc(N)c1[N+](=O)[O-] (racemic) [Example 1.121] | 80 | 100 |  | 100 | 100 | 100 | 100 | 100 | 100 | 100 |  |  |  |  |  | 90 |  |  |  |  |
| CC[C@H]1Cc2ccccc2[C@@H]1Nc1nc(C)c([N+](=O)[O-])c(N)n1 [Example 1.126] |  | 100 |  | 95 | 100 | 90 | 85 | 100 | 100 | 100 | 80 |  | 90 | 85 |  |  |  |  |  | Post-emergence herbicidal effect PHBPU [22]: 80% |
| Cc1ccc2c(c1)[C@H](Nc1nc(N)c(C#N)c(C3(c4ccc(Cl)cc4Cl)CC3)n1)[C@@H](C)C2 [Example 1.94] | 80 | 90 | 80 | 90 | 85 | 80 | 90 | 100 | 100 | 100 |  |  |  |  | wax-like; logp (HCOOH): 5.55; 1H-NMR (CDCl3, 400 MHZ, δ in ppm): 1.25 (d, 3H, CH3); | 80 |  |  |  |  |
| Cc1nc(NC2c3ccccc3CC2C)nc(N)c1[N+](=O)[O-] (racemic) [Example 1.125] | 80 | 90 |  | 90 | 95 | 90 | 90 | 100 | 100 | 100 |  |  |  |  |  |  |  |  |  |  |
| Nc1nc(N[C@@H]2CCCc3ccccc32)ncc1I [Example 1.37] |  | 100 |  | 100 | 90 |  |  | 100 | 100 |  | 80 |  | 95 | 90 | wax-like; logp (HCOOH): 1.32; 1H-NMR (CDCl3, 400 MHZ, δ in ppm): 1.85 (m, 2H, CH2); | 100 | 100 | 85 | 80 | Post-emergence herbicidal effect PHBPU [22]: 80% |
